Tests used:
Format in all cases: in vivo
[1] = tested on: cotton; test: Stomatal conductance of cotton plants after drench application; settings: for Reduction of stomatal conductance: drench 50 ppm ABA
Procedure: Cotton was planted and grown at 25° C. under a 16:8 photoperiod for 14 days. After two weeks, plants were moved to the greenhouse (25±2° C., 16:8 photoperiod) for an additional three weeks before treatment. […] Transpiration rate of each treatment was calculated as the percentage of that of control at each day to eliminate day-to-day variation caused by changes of environmental condition such as light intensity and temperature. In cotton, ABA, PBO and the combination were applied to evaluate the effect on stomatol conductance. A decrease in stomatal aperture, reflected in the conductance measures, is an immediate and direct effect of applied ABA (Finkelstein and Rock, 2002).

[2] = tested on: cotton; test: Stomatal conductance of cotton plants after spray application
Procedure: Cotton was planted and grown at 25° C. under a 16:8 photoperiod for 14 days. After two weeks, plants were moved to the greenhouse (25±2° C., 16:8 photoperiod) for an additional three weeks before treatment.
[…] Transpiration rate of each treatment was calculated as the percentage of that of control at each day to eliminate day-to-day variation caused by changes of environmental condition such as light intensity and temperature.
In cotton, ABA, PBO and the combination were applied to evaluate the effect on stomatol conductance. A decrease in stomatal aperture, reflected in the conductance measures, is an immediate and direct effect of applied ABA (Finkelstein and Rock, 2002).

[3] = tested on: Impatiens plants; test: Marketability of Impatiens plants, ABA drench and PBO foliar spray
Procedure: (§1) Ornamental Plants were purchased from local greenhouse retail outlets and allowed to equilibrate to greenhouse conditions for a minimum of 48 hours before experiments were performed.
(§2) To quantify resistance of plants to wilting, a wilt index was developed. The wilt index uses numerical values of 1-4 (1=no wilt, 4=completely wilted and loss of turgor) to express wilt status. A wilt index was determined for each individual plant assessed daily. When the wilt index was equal to or exceeded 2.5, the plant was considered not salable, and the last day prior to that was considered its last marketable day
To better determine the effectiveness of PBO on ABA effectiveness, a spatial separation in application methodology was used. That is, water or ABA were drench applied at 10% of the pot volume, followed by a spray application to the foliage of Tween 20 (0.05%) in water, either alone, or in combination with 1000 ppm PBO.
In Table 6, the rate of ABA in the drench application is varied in order to determine the effect of PBO sprays on ABA rate.

[4] = tested on: Impatiens plants; test: Wilt index of Impatiens plants after spray application
Procedure: as §1, §2
In the ornamental plant Impatiens, spray applications were made to evaluate the effects of ABA, PBO or the combination to increase the number of days until the plants wilted. Using a wilt index of 1-4 (1=no wilt, 4=completely wilted and loss of turgor), plants were evaluated following spray application.

[5] = tested on: Impatiens plants; test: Marketability (days marketable) of Impatiens plants after sprays
Procedure: as §1, §2
When the wilt incidence was less than 2.5, the treated plants were considered saleable. The duration of salability was determined for individual plants and the values averaged (Table 4).

[6] = tested on: Pansy; test: Marketability of Pansy after sprays
Procedure: as §1, §2
To determine if the ABA, PBO, or the combination of ABA and PBO is effective at increasing marketable life of other ornamental plants, Pansy plants were used. All applications were made by spray to fully hydrated plants. Solutions were applied as soon as possible after mixing. All spray applications contained Tween 20 at 0.05% (v/v). Plants were held in a greenhouse without further irrigation.

[7] = tested on: Viola (Violet); test: Marketability of Viola (Violet) after sprays
Procedure: as §1, §2
To determine if the combination of ABA and PBO is effective at increasing marketable life of other ornamental plants, Viola plants (Violet) were used. All applications were made by spray to fully hydrated plants. Spray solutions were applied as soon as possible after mixing. All spray applications contained Tween 20 at 0.05% (v/v).

[8] = drench 50 ppm, 0 hours after application
[9] = drench 50 ppm, 5 hours after application
[10] = drench 50 ppm, 24 hours after application
[11] = drench 50 ppm, 48 hours after application
[12] = drench 50 ppm, 72 hours after application
[13] = drench 50 ppm, 96 hours after application
[14] = spray 50 ppm, 0 hours after application
[15] = spray 50 ppm, 5 hours after application
[16] = spray 50 ppm, 24 hours after application
[17] = spray 50 ppm, 48 hours after application
[18] = spray 50 ppm, 72 hours after application
[19] = spray 50 ppm, 96 hours after application
[20] = spray PBO 1000 ppm + Tween 20 0.05%

S-(+)-abscisic acid [ABA]
Reduction of stomatal conductance ([1]; 5 hours post drench): 44% | Reduction of stomatal conductance ([1]; 24 hours post drench): 22.5% | Percent Conductance (stomatal conductance, control = 100%) [1, 8]: 100.3% | Percent Conductance (stomatal conductance, control = 100%) [1, 9]: 56.0% | Percent Conductance (stomatal conductance, control = 100%) [1, 10]: 77.5% | Percent Conductance (stomatal conductance, control = 100%) [1, 11]: 85.8% | Percent Conductance (stomatal conductance, control = 100%) [1, 12]: 83.9% | Percent Conductance (stomatal conductance, control = 100%) [1, 13]: 104.3% | Decrease in stomatal conductance ([2]; ABA spray, 5 hours after spray application): 58.9% | Percent Conductance (stomatal conductance, control = 100%) [2, 14]: 101.1% | Percent Conductance (stomatal conductance, control = 100%) [2, 15]: 41.1% | Percent Conductance (stomatal conductance, control = 100%) [2, 16]: 86.2% | Percent Conductance (stomatal conductance, control = 100%) [2, 17]: 91.9% | Percent Conductance (stomatal conductance, control = 100%) [2, 18]: 102.0% | Percent Conductance (stomatal conductance, control = 100%) [2, 19]: 100.6% | Days Marketable (Wilt index less than 2.5) ([3]; Table 5, drench ABA 200 ppm, spray Tween 20 0.05%): 7.69 days | Days Marketable (Wilt index less than 2.5) ([3]; Table 6, drench ABA 50 ppm, spray Tween 20 0.05%): 6.5 days | Days Marketable (Wilt index less than 2.5) ([3]; Table 6, drench ABA 200 ppm, spray Tween 20 0.05%): 8.1 days | Wilt Index (1 = no wilt; 4 = plants wilted, complete loss of turgor) ([4]; spray ABA 200 ppm + Tween 20 0.05%, 0 days after spray): 1 | Wilt Index (1 = no wilt; 4 = plants wilted, complete loss of turgor) ([4]; spray ABA 200 ppm + Tween 20 0.05%, 4 days after spray): 1.00 | Wilt Index (1 = no wilt; 4 = plants wilted, complete loss of turgor) ([4]; spray ABA 200 ppm + Tween 20 0.05%, 5 days after spray): 1.27 | Wilt Index (1 = no wilt; 4 = plants wilted, complete loss of turgor) ([4]; spray ABA 200 ppm + Tween 20 0.05%, 6 days after spray): 1.66 | Wilt Index (1 = no wilt; 4 = plants wilted, complete loss of turgor) ([4]; spray ABA 200 ppm + Tween 20 0.05%, 7 days after spray): 2.31 | Increase in shelf life without watering ([5]; ABA spray 200 ppm versus control spray): almost two day increase | Days Marketable (Wilt index less than 2.5) ([5]; spray ABA 200 ppm + Tween 20 0.05%): 7.5 days | Days Marketable (Wilt index less than 2.5) ([6]; spray ABA 7.5 mg + Tween 20 0.05%): 7.6 days | Days Marketable (Wilt index less than 2.5) ([7]; spray ABA 100 ppm + Tween 20 0.05%): 8.0 days

CCCCOCCOCCOCc1cc2c(cc1CCC)OCO2 [PBO, piperonyl butoxide]
Percent Conductance (stomatal conductance, control = 100%) [1, 8]: 100.8% | Percent Conductance (stomatal conductance, control = 100%) [1, 9]: 84.0% | Percent Conductance (stomatal conductance, control = 100%) [1, 10]: 95.1% | Percent Conductance (stomatal conductance, control = 100%) [1, 11]: 97.7% | Percent Conductance (stomatal conductance, control = 100%) [1, 12]: 91.6% | Percent Conductance (stomatal conductance, control = 100%) [1, 13]: 101.5% | Percent Conductance (stomatal conductance, control = 100%) ([1]; drench 500 ppm, 0 hours after application): 100.4% | Percent Conductance (stomatal conductance, control = 100%) ([1]; drench 500 ppm, 5 hours after application): 86.8% | Percent Conductance (stomatal conductance, control = 100%) ([1]; drench 500 ppm, 24 hours after application): 89.8% | Percent Conductance (stomatal conductance, control = 100%) ([1]; drench 500 ppm, 48 hours after application): 96.9% | Percent Conductance (stomatal conductance, control = 100%) ([1]; drench 500 ppm, 72 hours after application): 100.2% | Percent Conductance (stomatal conductance, control = 100%) ([1]; drench 500 ppm, 96 hours after application): 93.1% | Increase of the effect of ABA on stomatal conductance by addition of PBO ([2]; PBO 500 ppm added to ABA spray, 5 hours): 27% | Percent Conductance (stomatal conductance, control = 100%) [2, 14]: 101.8% | Percent Conductance (stomatal conductance, control = 100%) [2, 15]: 89.6% | Percent Conductance (stomatal conductance, control = 100%) [2, 16]: 100.7% | Percent Conductance (stomatal conductance, control = 100%) [2, 17]: 100.2% | Percent Conductance (stomatal conductance, control = 100%) [2, 18]: 90.2% | Percent Conductance (stomatal conductance, control = 100%) [2, 19]: 96.2% | Percent Conductance (stomatal conductance, control = 100%) ([2]; spray 500 ppm, 0 hours after application): 103.0% | Percent Conductance (stomatal conductance, control = 100%) ([2]; spray 500 ppm, 5 hours after application): 67.2% | Percent Conductance (stomatal conductance, control = 100%) ([2]; spray 500 ppm, 24 hours after application): 68.5% | Percent Conductance (stomatal conductance, control = 100%) ([2]; spray 500 ppm, 48 hours after application): 81.5% | Percent Conductance (stomatal conductance, control = 100%) ([2]; spray 500 ppm, 72 hours after application): 84.6% | Percent Conductance (stomatal conductance, control = 100%) ([2]; spray 500 ppm, 96 hours after application): 95.2% | Days Marketable (Wilt index less than 2.5) ([3]; Table 5, drench water, spray PBO 1000 ppm + Tween 20 0.05%): 6.69 days | Days Marketable (Wilt index less than 2.5) ([3]; Table 6, drench water, spray PBO 1000 ppm + Tween 20 0.05%): 6.5 days | Wilt Index (1 = no wilt; 4 = plants wilted, complete loss of turgor) ([4]; spray PBO 1000 ppm + Tween 20 0.05%, 0 days after spray): 1 | Wilt Index (1 = no wilt; 4 = plants wilted, complete loss of turgor) ([4]; spray PBO 1000 ppm + Tween 20 0.05%, 4 days after spray): 1.13 | Wilt Index (1 = no wilt; 4 = plants wilted, complete loss of turgor) ([4]; spray PBO 1000 ppm + Tween 20 0.05%, 5 days after spray): 1.34 | Wilt Index (1 = no wilt; 4 = plants wilted, complete loss of turgor) ([4]; spray PBO 1000 ppm + Tween 20 0.05%, 6 days after spray): 1.83 | Wilt Index (1 = no wilt; 4 = plants wilted, complete loss of turgor) ([4]; spray PBO 1000 ppm + Tween 20 0.05%, 7 days after spray): 2.25 | Days Marketable (Wilt index less than 2.5) [5, 20]: 6.6 days | Days Marketable (Wilt index less than 2.5) ([6]; spray PBO 1.5 mg + Tween 20 0.05%): 5.8 days | Days Marketable (Wilt index less than 2.5) [7, 20]: 5.9 days
